The values that follow come from patent US9663479B2, “γ-aminobutyric acid (GABA) analogues for the treatment of pain and other disorders” (Novassay S.A., priority 2013, dated 2017).

Some results are limits rather than exact numbers.

For test [1], the target named is Human Cav1.2/β3/α2δ-1 Calcium Channel Membranes (α2δ-1 subunit) (Homo sapiens (Human), UniProt P54289). Nature of the test: [3H]gabapentin scintillation proximity binding assay on calcium channel α2δ-1 subunit membranes. Here is the method: This test was carried out in the following way.
Human Cav1.2/β3/α2δ-1 Calcium Channel Membranes (α2δ-1 subunit), sequence (P54289 25-956): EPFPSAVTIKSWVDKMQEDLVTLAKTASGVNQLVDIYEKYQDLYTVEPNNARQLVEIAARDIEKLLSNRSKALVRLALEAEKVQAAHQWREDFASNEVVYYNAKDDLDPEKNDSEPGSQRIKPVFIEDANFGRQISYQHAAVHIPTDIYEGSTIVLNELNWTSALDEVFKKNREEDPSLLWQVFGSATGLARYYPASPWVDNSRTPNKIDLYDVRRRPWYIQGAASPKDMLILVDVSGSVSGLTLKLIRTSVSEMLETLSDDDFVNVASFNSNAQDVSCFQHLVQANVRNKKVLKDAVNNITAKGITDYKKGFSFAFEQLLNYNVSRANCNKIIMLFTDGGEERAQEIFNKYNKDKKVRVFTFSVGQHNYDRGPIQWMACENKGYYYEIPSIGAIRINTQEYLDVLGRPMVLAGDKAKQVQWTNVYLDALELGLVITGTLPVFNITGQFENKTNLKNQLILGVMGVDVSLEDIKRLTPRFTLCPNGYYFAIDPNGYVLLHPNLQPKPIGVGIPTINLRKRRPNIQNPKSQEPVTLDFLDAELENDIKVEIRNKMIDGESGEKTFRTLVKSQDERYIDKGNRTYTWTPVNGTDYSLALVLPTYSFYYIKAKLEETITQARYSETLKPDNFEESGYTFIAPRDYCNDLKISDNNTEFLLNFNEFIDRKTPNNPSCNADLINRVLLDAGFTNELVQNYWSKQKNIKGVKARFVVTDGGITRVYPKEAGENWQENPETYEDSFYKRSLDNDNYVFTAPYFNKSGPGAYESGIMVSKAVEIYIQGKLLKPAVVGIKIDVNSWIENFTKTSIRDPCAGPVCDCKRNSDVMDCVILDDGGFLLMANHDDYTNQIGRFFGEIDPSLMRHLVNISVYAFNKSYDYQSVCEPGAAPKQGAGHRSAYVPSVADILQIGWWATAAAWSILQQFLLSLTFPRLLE
Human Cav1.2/β3/α2δ-1 Calcium Channel Membranes (α2δ-1 subunit), sequence (P54289 957-1103): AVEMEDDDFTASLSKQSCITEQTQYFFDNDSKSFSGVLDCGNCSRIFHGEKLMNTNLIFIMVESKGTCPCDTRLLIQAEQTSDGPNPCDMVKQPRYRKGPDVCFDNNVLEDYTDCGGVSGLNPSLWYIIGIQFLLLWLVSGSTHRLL
Human Cav1.2/β3/α2δ-1 Calcium Channel Membranes (α2δ-1 subunit), sequence (Q13936 whole entry partner): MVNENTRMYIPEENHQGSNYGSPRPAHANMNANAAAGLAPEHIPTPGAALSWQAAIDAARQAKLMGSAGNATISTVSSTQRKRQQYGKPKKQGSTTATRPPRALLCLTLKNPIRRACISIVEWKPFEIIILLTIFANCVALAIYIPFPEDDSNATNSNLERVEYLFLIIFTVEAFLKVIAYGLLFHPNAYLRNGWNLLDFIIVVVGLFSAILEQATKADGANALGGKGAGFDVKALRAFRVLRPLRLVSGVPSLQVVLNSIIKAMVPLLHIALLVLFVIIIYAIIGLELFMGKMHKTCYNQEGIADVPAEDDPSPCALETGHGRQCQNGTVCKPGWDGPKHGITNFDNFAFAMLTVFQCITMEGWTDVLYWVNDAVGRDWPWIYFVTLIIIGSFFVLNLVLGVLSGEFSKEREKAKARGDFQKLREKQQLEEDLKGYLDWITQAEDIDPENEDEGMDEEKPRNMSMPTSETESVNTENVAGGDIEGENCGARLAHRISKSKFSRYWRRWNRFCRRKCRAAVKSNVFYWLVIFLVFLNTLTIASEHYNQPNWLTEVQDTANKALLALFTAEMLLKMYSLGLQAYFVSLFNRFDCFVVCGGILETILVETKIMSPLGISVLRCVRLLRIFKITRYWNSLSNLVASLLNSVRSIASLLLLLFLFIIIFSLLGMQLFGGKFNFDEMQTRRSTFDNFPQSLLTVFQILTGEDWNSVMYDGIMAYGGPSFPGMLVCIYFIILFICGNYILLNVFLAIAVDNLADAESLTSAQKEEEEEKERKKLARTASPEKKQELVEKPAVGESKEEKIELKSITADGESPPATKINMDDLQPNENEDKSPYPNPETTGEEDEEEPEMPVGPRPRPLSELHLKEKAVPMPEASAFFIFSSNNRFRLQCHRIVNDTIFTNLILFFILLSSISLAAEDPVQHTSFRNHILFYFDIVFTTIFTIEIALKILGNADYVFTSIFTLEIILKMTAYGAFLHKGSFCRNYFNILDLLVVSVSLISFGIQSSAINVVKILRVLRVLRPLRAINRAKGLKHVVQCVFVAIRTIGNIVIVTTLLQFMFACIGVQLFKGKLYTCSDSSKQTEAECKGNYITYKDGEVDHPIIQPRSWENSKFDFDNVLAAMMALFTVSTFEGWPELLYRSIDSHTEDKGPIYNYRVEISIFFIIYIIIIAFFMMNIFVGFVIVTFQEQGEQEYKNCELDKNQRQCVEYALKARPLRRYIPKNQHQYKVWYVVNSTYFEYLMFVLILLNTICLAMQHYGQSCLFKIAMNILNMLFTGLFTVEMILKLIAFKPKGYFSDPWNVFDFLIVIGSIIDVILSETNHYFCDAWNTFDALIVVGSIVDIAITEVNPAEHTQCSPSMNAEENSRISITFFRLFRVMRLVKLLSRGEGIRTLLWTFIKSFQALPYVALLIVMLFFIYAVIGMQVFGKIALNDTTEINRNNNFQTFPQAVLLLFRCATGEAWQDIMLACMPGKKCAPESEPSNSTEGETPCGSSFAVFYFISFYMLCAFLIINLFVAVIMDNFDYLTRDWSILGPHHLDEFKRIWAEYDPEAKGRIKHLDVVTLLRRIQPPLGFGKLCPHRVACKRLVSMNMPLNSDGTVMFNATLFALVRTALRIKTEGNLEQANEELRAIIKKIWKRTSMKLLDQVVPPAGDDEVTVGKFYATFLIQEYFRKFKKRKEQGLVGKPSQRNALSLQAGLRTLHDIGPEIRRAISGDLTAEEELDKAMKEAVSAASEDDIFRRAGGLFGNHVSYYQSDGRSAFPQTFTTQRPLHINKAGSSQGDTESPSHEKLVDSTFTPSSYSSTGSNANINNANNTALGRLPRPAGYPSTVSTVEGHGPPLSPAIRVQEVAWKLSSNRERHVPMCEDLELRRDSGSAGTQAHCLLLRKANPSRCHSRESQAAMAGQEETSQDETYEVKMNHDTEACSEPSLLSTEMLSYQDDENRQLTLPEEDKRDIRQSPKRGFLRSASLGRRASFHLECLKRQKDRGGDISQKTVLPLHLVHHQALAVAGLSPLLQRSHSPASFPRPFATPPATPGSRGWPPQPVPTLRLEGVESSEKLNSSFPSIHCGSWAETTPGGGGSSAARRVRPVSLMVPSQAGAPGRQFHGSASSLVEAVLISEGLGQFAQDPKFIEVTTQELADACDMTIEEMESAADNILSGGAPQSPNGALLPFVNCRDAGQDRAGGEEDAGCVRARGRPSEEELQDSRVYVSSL
Human Cav1.2/β3/α2δ-1 Calcium Channel Membranes (α2δ-1 subunit), sequence (P54284 whole entry partner): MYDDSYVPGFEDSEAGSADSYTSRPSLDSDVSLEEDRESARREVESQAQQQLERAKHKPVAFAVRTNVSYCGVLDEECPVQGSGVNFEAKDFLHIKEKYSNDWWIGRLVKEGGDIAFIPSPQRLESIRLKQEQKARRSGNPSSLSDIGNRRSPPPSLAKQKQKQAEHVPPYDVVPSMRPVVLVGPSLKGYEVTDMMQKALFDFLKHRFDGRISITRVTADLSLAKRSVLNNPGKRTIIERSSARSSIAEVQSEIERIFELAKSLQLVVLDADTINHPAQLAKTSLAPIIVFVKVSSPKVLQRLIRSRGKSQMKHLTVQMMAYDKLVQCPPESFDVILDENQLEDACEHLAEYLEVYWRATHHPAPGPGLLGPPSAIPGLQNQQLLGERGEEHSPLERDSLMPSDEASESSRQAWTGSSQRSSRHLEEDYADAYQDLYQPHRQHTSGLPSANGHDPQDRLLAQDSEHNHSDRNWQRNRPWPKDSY
Calcium Channel α2δ-1 Subunit Binding Assay
Human Cav1.2/β3/α2δ-1 Calcium Channel Membranes (Chantest) were thawed on ice, aliquotted and stored at −80° C. for subsequent use. Membranes were diluted to 200 μg/ml (3 μg/well final assay concentration (FAC)) in assay buffer (10 mM HEPES (Sigma), (pH7.4)). The [^3H]GBP (Perkin Elmer) stock solution was stored at −20° C. [^3H]GBP was diluted to 40 nM (10 nM FAC) in assay buffer. SPA beads (Perkin Elmer) were re-suspended at 100 mg/ml in 10 mM HEPES (pH 7.4). Beads were diluted to 40 mg/ml (0.6 mg/well FAC) in assay buffer. Nonspecific binding (NSB) was generated using an excess of pregabalin (Tocris). Pregabalin was solubilized in Milli-Q H2O at 10 mM. 10 mM pregabalin was diluted to 400 μM (100 μM FAC) in assay buffer.
Compounds were diluted to […] then half log diluted. These were then diluted 1:100 in assay buffer to a 4× assay concentration (1 μM FAC top dilution).
SPA beads 15 μl; membranes 15 μl; pregabalin or assay buffer/test compound 15 μl and [^3H]GBP 15 μl were added to a white 96 well isoplate, (Perkin Elmer). The assay plate was sealed and mixed for 10 s on a plate shaker then placed into a plate rack and slotted into the reader stacker.
The NSB values obtained by adding 100 μM pregabalin were subtracted from values obtained for compounds to generate a specific binding value. Specific binding in counts per minute (cpm) were plotted against compound concentration (M) and fitted using a 4 parameter logistic equation.
Background: Scintillation proximity formats need no separation of bound from free tracer.

Test [2] deals with human recombinant CACNA2D1 (Voltage-Gated Calcium Channel subunit α2δ-1 fragment). Nature of the test: Biacore surface plasmon resonance kinetic binding analysis on immobilised CACNA2D1. To be noted: SPR, CM5 chip, BSA reference subtracted. An excerpt:
Method for determining kinetic binding parameters (association and dissociation rates) and affinities (KD) of GABA analogues to α2δ-1subunits.
It is well known in the art that binding affinity can be expressed as KD or equilibrium dissociation constant, whereby increasing binding affinity correlates with decreasing KD, which can be calculated from kinetic binding constants. Kinetic binding analysis of GABA analogues to α2δ-1subunits can be determined by surface plasmon resonance technology applied in Biacore™ SPR instruments (Biacore, GE Healthcare, Uppsala). Kinetic association rates (ka; k-on) and dissociation rates (kd; k-off) are obtained. Equilibrium dissociation constant (KD; affinity) values are calculated as k-off/k-on.
This example discloses that the GABA analogues ((1R,5S,6S)-6-((1H-tetrazol-5-yl)methyl)-3-ethylbicyclo[3.2.0]hept-3-en-6-yl)methanamine (“Test Compound”: prepared as described in Example 2) and (1R,5S,6S)-6-(aminomethyl)-3-ethylbicyclo[3.2.0]hept-3-en-6-yl]acetic acid (“Reference Compound”: prepared as described in WO 2010/079668 and US 2012/0071685A1) are capable of binding to a recombinant fragment of human Voltage-Gated Calcium Channel subunit (α2δ-1, CACNA2D1). […]

Test [3] concerns the target α2δ-1 sub-unit (Homo sapiens (Human), UniProt P54289). To be noted: read-out: Literature IC50 nM; binding to α2δ-1 sub-unit, literature value; cited from earlier work.

α2δ-1 sub-unit, sequence (P54289 whole entry, looked up): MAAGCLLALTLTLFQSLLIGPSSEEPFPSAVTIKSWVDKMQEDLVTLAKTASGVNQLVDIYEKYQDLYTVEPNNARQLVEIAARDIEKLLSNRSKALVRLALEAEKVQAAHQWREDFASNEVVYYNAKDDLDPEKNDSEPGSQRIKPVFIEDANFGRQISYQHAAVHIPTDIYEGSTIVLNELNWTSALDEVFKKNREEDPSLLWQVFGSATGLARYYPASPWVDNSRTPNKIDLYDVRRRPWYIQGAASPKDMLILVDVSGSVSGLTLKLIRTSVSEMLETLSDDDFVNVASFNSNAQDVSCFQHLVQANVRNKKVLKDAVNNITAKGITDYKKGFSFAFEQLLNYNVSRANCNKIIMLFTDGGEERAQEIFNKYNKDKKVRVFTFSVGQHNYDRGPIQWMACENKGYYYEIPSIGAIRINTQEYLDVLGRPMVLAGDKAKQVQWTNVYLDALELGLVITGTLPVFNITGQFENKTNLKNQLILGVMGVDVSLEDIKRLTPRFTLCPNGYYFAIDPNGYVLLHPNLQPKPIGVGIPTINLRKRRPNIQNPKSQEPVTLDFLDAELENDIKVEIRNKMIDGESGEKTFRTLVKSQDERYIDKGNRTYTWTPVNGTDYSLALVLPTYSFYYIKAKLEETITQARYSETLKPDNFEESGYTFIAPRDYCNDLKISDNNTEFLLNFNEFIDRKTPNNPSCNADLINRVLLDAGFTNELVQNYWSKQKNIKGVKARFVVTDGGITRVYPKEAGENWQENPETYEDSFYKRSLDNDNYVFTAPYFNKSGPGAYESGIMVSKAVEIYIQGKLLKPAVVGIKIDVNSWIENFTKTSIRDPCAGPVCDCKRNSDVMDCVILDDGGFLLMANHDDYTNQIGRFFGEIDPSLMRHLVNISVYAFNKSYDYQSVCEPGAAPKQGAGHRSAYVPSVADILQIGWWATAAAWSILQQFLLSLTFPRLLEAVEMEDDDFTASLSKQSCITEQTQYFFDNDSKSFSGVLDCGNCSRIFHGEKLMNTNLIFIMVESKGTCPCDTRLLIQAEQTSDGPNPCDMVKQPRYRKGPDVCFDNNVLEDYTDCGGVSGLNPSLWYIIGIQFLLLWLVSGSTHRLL

For orientation: IC50 means the concentration that inhibits the measured activity by half. Take `CCC1=CC2C(C1)C[C@@]2(CN)Cc1nn[nH]n1` (single isomer, unassigned) [Formula 2 peak 1 (Chiral)]: the IC50 in test [1] was found to be 165 nM.

On to `CCC1=CC2C(C1)C[C@]2(CN)Cc1nn[nH]n1` (single isomer, unassigned) [Formula 2 peak 2 (chiral)], for which the IC50 in test [1] was determined as 2.1 nM.

Regarding `CCNC[C@]1(Cc2nnn[nH]2)C[C@H]2CC(CC)=C[C@H]21` (racemic) [Formula 1 (Racemic), Racemic N-(((1R,5S,6S)-6-((1H-tetrazol-5-yl)methyl)-3-ethylbicyclo[3.2.0]hept-3-en-6-yl)methyl)ethanamine], in test [1], the IC50 was no less than 500 nM.

As to `CCC1=C[C@@H]2[C@H](C1)C[C@]2(CN)Cc1nn[nH]n1` (racemic) [Formula 2 (Racemic), Racemic ((1R,5S,6S)-6-((1H-tetrazol-5-yl)methyl)-3-ethylbicyclo[3.2.0]hept-3-en-6-yl)methanamine], the IC50 in test [1] was determined as 4.2 nM.

For `CCC1=C[C@@H]2[C@H](C1)C[C@]2(CN)CC(=O)O` [Reference Compound, reference compound], in test [2], the “Specific binding to human CACNA2D1 recombinant protein” value is recorded as “able to specifically bind”.

Regarding `CCC1=C[C@@H]2[C@H](C1)C[C@]2(CN)Cc1nnn[nH]1` [Test Compound, ((1R,5S,6S)-6-((1H-tetrazol-5-yl)methyl)-3-ethylbicyclo[3.2.0]hept-3-en-6-yl)methanamine], in test [2], the “Specific binding to human CACNA2D1 recombinant protein” value is reported as “able to specifically bind”.

On to `CCC1=C[C@@H]2[C@H](C1)C[C@]2(CN)Cc1nc(=O)o[nH]1` (racemic) [Formula 3 (Racemic), Racemic 3-(((1R,5S,6S)-6-(aminomethyl)-3-ethylbicyclo[3.2.0]hept-3-en-6-yl)methyl)-1,2,4-oxadiazol-5(4H)-one], for which, in test [1], the IC50 was determined as 19 nM.

On to `CC(C)CC(CN)CC(=O)O` (stereo not drawn) [Pregabalin, reference compound], for which the IC50 is 23 nM in test [1] and 80 nM in test [3].
